From patent US10420831B2, “Inactivation of viruses by delipidation” (priority 2016, dated 2019)
Where two headings read alike, the source gives them in different places.

What was measured:
[1] = tested on: human influenza virus H1N1 A/WSN/33 strain; assay: Hemagglutination (HA) activity of treated IFV with chicken red blood cells
Experimental: Hemagglutination (HA) activity is determined as follows. Freshly isolated chicken blood is washed three times with PBS, and the red blood cells (RBC) are resuspended in PBS at a concentration of 1%. Virus dilutions (50 μL) are made in PBS and mixed with 50 μL of the RBC suspension. The mixture is added to individual wells in a 96-well plate and the RBC are allowed to settle for 45 minutes. The wells are judged to be HA negative (i.e. no agglutination of RBC) if a dot or pellet of RBC is present, and a well is judged to be positive if a smooth suspension of RBC is present.
In addition to MBCD, another lipid solvent, diisopropyl ether (DIPE) is used to delipidate IFV. […] After a brief centrifugation at 2,000×g for 3 minutes, visible solvent is removed, and the aqueous materials are left to dry in a fume hood for 20 minutes. The samples are then centrifuged at 200,000×g for 30 minutes to recover virus particles.

[2] = tested on: human influenza virus H1N1 A/WSN/33 strain; type: cell-based

For CC(C)OC(C)C [DIPE, diisopropyl ether], which HA units ([1]; 2% DIPE, 37° C., 30 minutes) is on record?
Its HA units is 32 HA units.

And the HA units ([1]; 4% DIPE, 37° C., 30 minutes)?
The HA units was 32 HA units.

What about the HA units ([1]; 8% DIPE, 37° C., 30 minutes) of the same compound?
The HA units was 32 HA units.

And the “effect on HA activity (in words)” value ([1]; 10% DIPE, 30 minutes)?
Its value is “measurably reduced”.

And the HA units ([1]; 10% DIPE, end-over-end rotation at 37° C. for 30 minutes)?
Its HA units is 16 HA units.

What about the HA units ([1]; 12% DIPE, 37° C., 30 minutes) of the same compound?
The HA units was 16 HA units.

And the “IFV infectivity reduced, compared to the mock-treatment” value ([2]; 12% DIPE, 37° C., 30 minutes, […])?
The value was 32 fold.

What about the PFU/mL ([2]; IFV, 2% DIPE, 37° C., 30 minutes) of the same compound?
Its PFU/mL is 1.2 × 10^8 PFU/mL.

And the PFU/mL ([2]; IFV, 4% DIPE, 37° C., 30 minutes)?
Its PFU/mL is 1.4 × 10^8 PFU/mL.

What about the PFU/mL ([2]; IFV, 8% DIPE, 37° C., 30 minutes) of the same compound?
The PFU/mL was 9.0 × 10^7 PFU/mL.

And the “decrease in infectivity in vitro” value ([2]; IFV, 10% DIPE, 30 minute treatment)?
The value was ~120 fold.

What about the PFU/mL ([2]; IFV, 10% DIPE, end-over-end rotation at 37° C. for 30 minutes) of the same compound?
Its PFU/mL is 1.0 × 10^5 PFU/mL.

And the PFU/mL ([2]; IFV, 12% DIPE, 37° C., 30 minutes)?
Its PFU/mL is 2.8 × 10^7 PFU/mL.
